Data on three molecules can be found in US9855538B2, “Ultrasonic method and apparatus for producing particles having a controlled size distribution” (The Board of Trustees of the University of Illinois, priority 2013, dated 2018).

Molecules are shown by their SMILES.

Series [1] in a line: Solubility of the drug in solvent / antisolvent. The series is classed as physicochemical. An excerpt: The solute employed in the process may be any material for which a suitable solvent and antisolvent may be found. The suitability of a solvent/antisolvent system may be evaluated by comparing the solubility of the solute in the solvent with the solubility of the solute in the antisolvent. For example, the solute may have a first solubility in the solvent and a second solubility in the antisolvent, where a ratio of the first solubility to the second solubility is at least about 10:1, or at least about 100:1. A higher ratio may permit a higher particle yield to be achieved for a given concentration of solute in the solvent. Accordingly, the ratio may also be at least about 200:1 or at least about 400:1, but is typically no higher than about 800:1. As would be recognized by one of ordinary skill in the art, the solubility of solute in a given solvent may be represented in terms of milligrams of solute per milliliter of the solvent (mg/mL), and may be determined by HPLC or gravimetric analysis.

Series [2] in a line: Particle size and morphology of drug particles from antisolvent sonocrystallization (optical microscope, SEM, dynamic light scattering). Type of series: physicochemical. An excerpt:
The application of ultrasound to the induction of nucleation of drug crystals is presented in the following examples. The apparatus shown in FIG. 1 was employed for all of the experiments, using a titanium-aluminum alloy flow-through ultrasonic horn (Sonics & Materials VCX750) having a resonance frequency of 20 kHz, a 1 cm^2 tip and an outlet diameter of 4 mm. Horn intensities were calibrated by calorimetry with water. A crystallization tube having an outer diameter (OD) of 13 mm was used in each experiment. Each has different solubility characteristics and consequently its own solvent/antisolvent system. Fine particles of several drug materials, including aspirin (acetylsalicylic acid), acetaminophen (also called paracetamol, the active ingredient in Tylenol), and folic acid (vitamin B9), were prepared by antisolvent sonocrystallization.
Particles were imaged using a Canon PC1015 digital camera attached to a Zeiss Axioskop optical/fluorescence microscope with polarization analyzer or with a Hitachi 4700 SEM. Particle size distributions were measured by dynamic light scattering when possible.

`CC(=O)Oc1ccccc1C(=O)O` [aspirin, acetylsalicylic acid]: the “concentration of saturated ethanol solution” value in series [1] (ethanol) is listed as “about 400 mg/mL”.

As to `Nc1nc2ncc(CNc3ccc(C(=O)N[C@@H](CCC(=O)O)C(=O)O)cc3)nc2c(=O)[nH]1` [Folic acid, folic acid], the solubility in acetone entry in series [1] (acetone) is listed as “negligible”. The solubility in base entry in series [1] (base (as the folate ion)) is “dissolves readily”. The solubility in water result in series [1] (neutral to moderately acidic water) is “very nearly insoluble”; in series [1] (very low pH) it was “quite soluble”. Also, the crystal diameter entry in series [2] (20% aqueous ammonium hydroxide solvent, acetone antisolvent, by SEM (FIGS. 8A-8B)) was “about 100 nm”. Besides, in series [2] (saturated sodium bicarbonate solution, H2SO4 antisolvent, FIGS. 7C-7D), the “particle morphology (optical microscope)” value is reported as “large needles”. For the same molecule, the “particle size (optical microscope)” value in series [2] (saturated sodium bicarbonate solution, HCl antisolvent, FIGS. 7A-7B) was “too small to resolve optically”.

Take `CC(=O)Nc1ccc(O)cc1` [acetaminophen]: the Resultant particle morphology entry in series [2] (antisolvent sonocrystallization, 20 kHz, 15 W, solvent/antisolvent per experiment (Tables 1, 2)) is listed as “platelike”. Also, the “crystal length in the largest dimension” value in series [2] (ethanol solution, hexanes as antisolvent, FIGS. 6A and 6B) was “a few”.
